From patent US20240139223A1, “SOY ISOFLAVONES FOR ASTHMA PREVENTION” (University of South Florida, priority 2021, published 2024)

How the values were obtained:
human rhinovirus (HRV) = settings: compared with guideline-driven care alone; cited from earlier work
pDCs = settings: cited from earlier work
[1] = system: murine model of asthma (BALB/c mice); assay: Airway hyperresponsiveness (total respiratory system resistance, FlexiVent) in OVA murine model of asthma; assay type: in vivo, mouse; settings: summary
Protocol: Eight-week-old BALB/c mice were purchased from The Jackson Lab and housed in standard laboratory conditions (12/12-h light/dark cycle, 22-24° C., 40-60% humidity). Forty female mice were divided into four groups (namely, OVA+Veh, OVA+Bio300, PBS+Veh, PBS+Bio300). Genistein (Bio300, Humanetics Corp.) was administered to two of the groups in conjunction with either OVA or PBS. The mice in each group (n=10) were equally divided into two cages (5 mice/cage) to provide appropriate space for the mice. […]
From Day 14 to Day 28, the OVA+Bio300 and PBS+Bio300 groups received Bio300 (100 ul) by oral gavage every other day. […] On Day 29, airway hyperresponsiveness (AHR) was assessed and tissues were obtained for further analysis.
All mice were anesthetized with ketamine, tracheostomized, and mechanically ventilated with a FlexiVent system (SCIREQ, Flexivent, Scireq Inc., Montreal, Canada) as described in Choi et al., incorporated by reference in its entirety herein. […] Volume changes due to thoracic expansion and alterations in tracheal pressure were measured in response to challenges with increasing concentrations of methacholine (3, 6, 12, 25, and 50 mg/mL) and reported as total respiratory system resistance (Rrs).

[2] = system: PAI-1 production in normal human bronchial epithelial (NHBE) cells; assay: TGF-β1-induced PAI-1 gene expression and protein production in NHBE cells (real-time PCR, ELISA); assay type: cell-based; settings: for TGF-β1-induced PAI-1 protein production: 6 hours, NHBE
Protocol: Normal human bronchial epithelial (NHBE) cells were cultured, as previously described in Cho S H, Lee S H, Kato A, Takabayashi T, Kulka M, Shin S C, et al. Cross-talk between human mast cells and bronchial epithelial cells in plasminogen activator inhibitor-1 production via transforming growth factor-b1. Am J Respir Cell Mol Biol 2015; 52:88-95, herein incorporated by reference in its entirety into this disclosure. […] Cell pellets were used for real-time PCR, and cell-culture supernatants were used for PAI-1 protein ELISA.
The PAI-1 concentration in the blood of subjects and supernatants of NHBE cells was measured in duplicate by means of ELISA (Assay Pro, St Charles, Mo), as previously described in Cho et al. 2015, herein incorporated by reference in its entirety into this disclosure. For mRNA analysis of PAI-1 (Hs00167155_m1), quantitative real-time PCR was performed with the ViiA 7 Real-Time PCR System (Applied Biosystems, Foster City, Calif). Expression of glyceraldehyde-3-phosphate dehydrogenase (GAPDH; Hs02786624_g1) was used as an internal control for normalization. Cycling conditions were as follows: 50° C. for 2 minutes (hold) for 1 cycle, 95° C. for 10 minutes (hold) for 1 cycle, and 95° C. for 15 seconds and 60° C. for 1 minute (cycling) for 40 cycles. Relative gene expression was calculated by using the comparative 2^−ΔΔCT method.
To investigate the cellular mechanism of the soy isoflavone/PAI-1 link, the inventors treated cultured NHBE cells with TGF-β1 (2 ng/mL) for 6 hours with and without genistein pretreatment. There was a significant increase in PAI-1 mRNA and protein production (about 10-fold) after adding TGF-β1 (FIG. 1). […] Soy isoflavones reduce asthma exacerbation in high PAI-1 producing genotype. (FIG. 2)
There was a significant increase of the PAI-1 mRNA and protein production (about 10-fold) after adding the TGF-β1 (FIG. 5).

In the case of “omalizumab: costly biological agent blocking IgE, administered by injection”, the “Duration of HRV infections, viral shedding, and risk of HRV-related illness” value (human rhinovirus (HRV)) is given as “decreased”, the “Interferon alpha production from pDCs” value (pDCs; ex vivo and in vivo treatment) is given as “restored” and the “Reduction of FcεRIα expression on pDCs” value (pDCs; omalizumab treatment, previous study) is given as “about 57%”.
In the case of `O=c1c(-c2ccc(O)cc2)coc2cc(O)cc(O)c12` [genistein], the “Allergic inflammation and airway hyperreactivity” value [1] is reported as “reduced allergic inflammation and improved airway hyperreactivity”, the “PAI-1 production from human bronchial EC and mast cells” value ([2]; FIG. 5 legend) is reported as “significantly reduces” and the “TGF-β1-induced PAI-1 gene expression and protein production” value ([2]; NHBE cells, genistein pretreatment) is reported as “significantly reduced”. The “TGF-β1-induced PAI-1 protein production” value ([2]; genistein 1 μM pretreatment, TGF-β1 2 ng/ml) was 360700 ± 10500 pg/mL, the “TGF-β1-induced PAI-1 protein production” value ([2]; genistein 5 μM pretreatment, TGF-β1 2 ng/ml) was 306.0 ± 5.3 pg/mL and the “TGF-β1-induced PAI-1 protein production” value ([2]; genistein 5 mmol/L pretreatment, TGF-β1 2 ng/mL) was 306.0 ± 5.3 pg/mL.
With “TGF-β1: recombinant human TGF-β1 (R&D Systems), stimulus of PAI-1 production [reference compound]” the “Increase in PAI-1 mRNA and protein production” value ([2]; NHBE cells, TGF-β1 2 ng/mL for 6 hours) was “about 10 fold”.
